Laboratory results taken from article PMC13334477 (RSC Medicinal Chemistry, 2026).
Several values for one entry are separate records, joined by “and”; a condition that tells them apart may be missing. Equal values may be shown once.

Columns and labels:
[1] = test system: rLTR4-3′Cy5 (parallel RNA G4); test: Ligand-induced fluorescence quenching assay (FQA), rLTR4-3′Cy5; type: binding, HIV-1
Experimental: Cy5 labelled oligonucleotides were purchased lyophilized and RP-cartridge purified from Eurogentec (Kanaka Eurogentec, Seraing, Belgium). The ligand-induced fluorescence quenching assay was conducted as previously described.[47] A Stratagene Mx3005P instrument was used to carry out the assay in 96-well plates. The filters for excitation and emission were set at 635 nm and 665 nm, respectively. The gain was used at 8×. The labeled oligonucleotide was used at 10 nM, and the buffer was 10 mM lithium cacodylate (pH 7.2), 10 mM KCl, and 90 mM LiCl in a final volume of 50 μL. The oligonucleotide was heated at 90 °C for 5 min and put in ice to anneal. The ligand was added over a range of concentrations between 0 and 80 μM. A competitor, ds26, was also added at 3 or 10 μM. Each experimental condition was tested in triplicate except for the ligand alone with the buffer, which was tested in duplicate. The instrument was programmed to heat the plate for 10 min at 25 °C and measure the fluorescence after 1 min for 5 cycles. The fluorescence of each sample was normalized, and the fluorescence of the ligand alone was subtracted.
We then addressed the binding of the DBA series to the rLTR4 RNA G4. The FRET melting assay was not appropriate for investigating ligand binding to this RNAs due to its high thermal stability (Tm > 72 °C).[26] We have therefore used a ligand-induced fluorescence quenching assay (FQA) to analyse the interaction of the DBAs with either 5′ or 3′ fluorescently labelled RNAs (Fig. S8). Since planar G4-ligands generally stack on an accessible G-quartet,[94–96] we expect the DBAs to also recognize G4s by stacking interactions. To conduct a fluorescence quenching experiment, a CY5 fluorophore is attached on the 3′ or 5′ end of the RNA. […] Thus, upon interaction of the ligand with the G-quartet, the ligand induces the quenching of the fluorescence emission. This test enables determination of the apparent association constants (Ka) of each DBA with the 5′ or 3′ quartet of the G4 structure (Fig. 4, Table S3). […] A similar difference in G-tetrad binding affinities has previously been observed for TMPyP4 and PhenDC3.[47]
The fluorescently labeled oligonucleotides were dissolved at a concentration of 10 nM in 10 mM lithium cacodylate buffer (pH 7.2) with 10 mM KCl and 90 mM LiCl. […] Data are the results of at least three independent experiments in which each data point was performed in duplicate.

[2] = test system: HIVpro1-FT (anti-parallel DNA G4); test: FRET melting assay, HIVpro1-FT; type: binding, HIV-1; details: ligand 1 μM, DNA 0.2 μM
Experimental: Doubly labelled oligonucleotides with fluorescein and TAMRA were purchased lyophilized and RP-cartridge purified from Eurogentec (Kanaka Eurogentec, Seraing, Belgium). FRET melting experiments were run on Stratagene Mx3005P real-time PCR equipment in 96-well plates on the DNA sequences listed Table 1. Experiments were performed in 10 mM lithium cacodylate buffer (pH 7.2) and 10 mM KCl and 90 mM LiCl as previously described.[45,46] The DNA concentration was 0.2 μM. The stabilization (ΔT1/2) induced by compounds was calculated as the difference between the Tm of the nucleic acid alone and that measured with a ligand concentration of 1 μM. Data are presented as averages of three independent measurements, each conducted in duplicate (λexc = 492 nm, λem = 516 nm, T interval = 25–95 °C, ramp: 25 °C for 5 min, then 1 °C min^−1, measurements every 1 °C, 8× magnification of the fluorescence signal). The G4 selectivity of the ligands with respect to the duplex was evaluated by determining the Tm values in the presence of 0, 3 or 10 μM of the duplex competitor ds26.
In this assay, we performed thermal denaturation experiments by heating and recording the fluorescence of DNA oligonucleotides doubly labelled with fluorescein and TAMRA fluorophores (Fig. 3 and S7). Ligand binding to the G4 stabilises the structure, resulting in an increase in the half-dissociation temperature of the structure (ΔT1/2). As a first approximation, the higher the ΔT1/2 (ΔT1/2 higher), the higher the affinity of the ligand for the target.[45]
The fluorescently labeled oligonucleotides were dissolved at a concentration of 0.2 μM in 10 mM lithium cacodylate buffer (pH 7.2) with 10 mM KCl and 90 mM LiCl. […] E) Radar plot representation that summarizes the FRET-melting results (ΔT1/2 (°C)) for each ligand in the presence of HIVpro1-FT (green), HIVpro2-FT (grey), LTR4-FT (bleu), and Htel-FT (red). Data are the results of at least three independent experiments in which each data point was performed in duplicate.

[3] = test system: DK66 (DNA, duplex) CGCGAATTCGCG; test: native ESI-MS; details: 100 mM ammonium acetate (NH4+), no K+, apparent, 10 μM DNA, 20 μM ligand, 4 °C incubation

Structure (SMILES) | Ka rLTR4-3′Cy5 FQA ([1]; +10µM ds26) | Kd ([1]; +10µM ds26) | Ka rLTR4-3′Cy5 FQA ([1]; No ds26) | Kd ([1]; No ds26) | ΔT1/2 HIVpro1 ([2]; +10µM ds26) | ΔT1/2 HIVpro1 ([2]; No ds26) | Kd1 ([3]; almost no complex detected) | Kd1 ([3]; site 1 of 2)
COc1ccc2c(ccc3c2cc2c4ccc(OC)cc4ccc2[n+]3-c2ccccc2)c1 [DBA1] | 2.8±0.23 10^5 M | 3.3 ± 0.4 µM | 3.1±0.2 10^5 M | 3.2 ± 0.5 µM | 4.4±0.7 °C | 6.9±0.04 °C | 4833.59 µM | 
COC(=O)c1ccc(-[n+]2c3ccc4cc(OC)ccc4c3cc3c4ccc(OC)cc4ccc32)cc1 [DBA2] | 1.2±0.08 10^5 M | 8.6 ± 1.3 µM | 1.5±0.06 10^5 M | 6.7 ± 1.5 µM | 3.9±0.2 °C | 5.6±0.3 °C and 5.6 °C | 711.55 µM | 
COc1ccc(-[n+]2c3ccc4cc(OC)ccc4c3cc3c4ccc(OC)cc4ccc32)cc1 [DBA3] | 1.5±0.09 10^5 M | 6.9 ± 1.1 µM | 1.6±0.11 10^5 M | 6.2 ± 1 µM | 5.0±0.1 °C | 6.3±0.7 °C and 6.3 °C | 1071.92 µM | 
COc1ccc2c(ccc3c2cc2c4ccc(OC)cc4ccc2[n+]3-c2ccc([N+](=O)[O-])cc2)c1 [DBA4] | 1.9±0.1 10^5 M | 5.3 ± 1.1 µM | 3.0±0.24 10^5 M | 3.3 ± 0.4 µM | 5.1±0.5 °C | 7.0±2.0 °C and 7 °C |  | 165.13 µM
c1ccc(-[n+]2c3ccc4ccccc4c3cc3c4ccccc4ccc32)cc1 [DBA5] | 2.5±0.2 10^5 M | 4 ± 0.6 µM | 2.5±0.31 10^5 M | 4 ± 0.3 µM | 3.6±0.04 °C | 5.0±0.03 °C |  | 75.39 µM
